Laboratory results published in PMC9166630, “SAR Probing of KX2-391 Provided Analogues With Juxtaposed Activity Profile Against Major Oncogenic Kinases” (Frontiers in Oncology, 2022).

Key:
[1] = test system: AKT 1/2/3; experiment: Human phosphokinase array, AKT 1/2/3; assay type: cell-based
Source text: The kinome tree representation (Figure 7C), which was generated by raising the Kinase Score cut-off to >1.2, confirmed that, unlike tirbanibulin and our prototype molecule KX1-136, 4e’s effects were more observable on kinases other than the Src family such as the Eph and TEC families. […] Therefore, we screened compound 4e using the Human Phospho-Kinase Array® kit from R&D systems (Minneapolis, MN, USA). In this system, 35 phosphorylated YK and serine-threonine kinase (STK) enzymes in the untreated (control) and treated (test) HL60 cell lysates were captured on nitrocellulose membrane, pre-spotted with phosphokinase-specific capture antibodies, and then visualized by detection antibody cocktails (Figure 8). The difference in the spot intensity between untreated (control) and treated cells is proportional to change in the amount of the phosphorylated protein induced by 4e.
The phosphorylation profile of 48 kinases was performed using the Proteome Profiler Human Phospho-Kinase Antibody Array Kit by R&D Systems (Minneapolis, MN, USA) according to the protocol. Briefly, the total cellular protein was extracted using the Lysis buffer and was quantified using Bio-Rad DC Protein Assay kit (Hercules, CA, USA). Nitrocellulose membrane set (A&B), pre-spotted with kinase-specific capture antibodies, were first blocked with Array Buffer-1 at RT for 30 min on a rocking platform shaker. Approximately 600 µg of protein concentrate was diluted in the buffer provided and was added onto the membrane set, and the membranes were incubated overnight at 4°C in an 8-well plate. Subsequently, membranes were washed with Wash Buffer and incubated with appropriate Detection Antibody cocktails for 2 h at RT. Streptavadin-HRP (1:2000) was added onto membranes and incubated for 30 min at RT. Membranes were washed, and Chemiluminescent Detection Reagents 1&2 were applied in equal volumes for detection. The signals were detected on C-DiGit®Blot Scanner (LI-COR, Odyssey Imaging Systems, Lincoln, Nebraska, USA) using Image Studio 5.0 software.

[2] = test system: Lck; experiment: PamChip tyrosine kinase microarray, Lck; assay type: biochemical, human; details: 4e 0.1 µM, HL60 lysate
Experimental: (§1) The changes in kinase activities induced by treatment with 4e were monitored within the HL60 cell lines using PamGene’s (Hertogenbosch, Netherlands) PamChip® peptide microarray profiler, which quantifies the activities of 144 tyrosine kinases (YK) ([29], [30]) (Figure 7). Results are provided as a log fold change (LFC) heatmap and Mean Kinase Statistic. From the LFC it is apparent that compound 4e, at a concentration of 0.1 µM, induced sizable changes to the activity of several kinases within the cell signaling YK profile (Figure 7A).
(§2) An Upstream Kinase tool was used to generate a putative list of kinases responsible for phosphorylating the phospho-sites on the PamChip (Figure 7B) ([31]). It is an interpretation and is highly dependent on the contents of the underlying phosphorylation databases. A Kinase Score was used for ranking kinases based on their significance and specificity in terms of the set of peptides used for the corresponding kinase. Kinase Statistics indicates the overall change of the peptide set that represents the kinase. Kinase statistics value <0 indicates lower kinase activity in the compound spiked lysate and vice versa ([32], [33]). Table 5 lists the 20 most changed kinases within treated HL60 cell lysates by 0.1 μM 4e, ranked according to their Kinase Score.
The two multiple-kinase tests (PamChip and Phosphokinase Profiler) provided strong evidence of very minor involvement of Src in the cellular activities of 4e. However, the question must be raised about the effect of the 4e on other SRC family kinase (SFK). To address this point, we must highlight that both R&D phosphokinase profiler and PamChip feature Yes, Fgr, Lyn, Lck and Src while Fyn, Hck, Blk and Frk activities are tested in the PamChip only. The signals of SFKs in the R&D Phosphokinase Profiler were too weak to detect in both untreated (control) and 4e-treated HL60 cells. In PamChip assay, most of SFK’s were not ranked in the top 20 affected kinases (Table 5). In addition, their Specificity Score were very low (Table 6) indicating their marginal importance to the cell killing activities of 4e. Fgr kinase which ranked 7th in the list (Table 5) was the only SFK member that seems to be affected by the compound, albeit with low Specificity Score (1.03).
The compound 4e was spiked into HL60 cell lysate at different concentrations (0.001, 0.01, 0.1, 1, 10 and 50 μM). In addition, DMSO was also spiked in HL60 lysate at low concentration (2% v/v) as control. Samples were profiled on PamGene’s Tyrosine Kinase (PTK) arrays in technical replicates, covering a total of 196 phosphorylation sites. Frozen HL60 cultured cell pellet was sent to PamGene. […] Protein concentration was measured using standard Bradford assay as per PamGene SOPs. […]

[3] = target: T1, ITK (Homo sapiens, UniProt Q08881); experiment: PamChip tyrosine kinase microarray, ITK; assay type: biochemical; details: 4e 0.1 µM, HL60 lysate
T1 construct: endogenous in cells; host or cells: HL60 lysate
T1 sequence (Q08881 1-620): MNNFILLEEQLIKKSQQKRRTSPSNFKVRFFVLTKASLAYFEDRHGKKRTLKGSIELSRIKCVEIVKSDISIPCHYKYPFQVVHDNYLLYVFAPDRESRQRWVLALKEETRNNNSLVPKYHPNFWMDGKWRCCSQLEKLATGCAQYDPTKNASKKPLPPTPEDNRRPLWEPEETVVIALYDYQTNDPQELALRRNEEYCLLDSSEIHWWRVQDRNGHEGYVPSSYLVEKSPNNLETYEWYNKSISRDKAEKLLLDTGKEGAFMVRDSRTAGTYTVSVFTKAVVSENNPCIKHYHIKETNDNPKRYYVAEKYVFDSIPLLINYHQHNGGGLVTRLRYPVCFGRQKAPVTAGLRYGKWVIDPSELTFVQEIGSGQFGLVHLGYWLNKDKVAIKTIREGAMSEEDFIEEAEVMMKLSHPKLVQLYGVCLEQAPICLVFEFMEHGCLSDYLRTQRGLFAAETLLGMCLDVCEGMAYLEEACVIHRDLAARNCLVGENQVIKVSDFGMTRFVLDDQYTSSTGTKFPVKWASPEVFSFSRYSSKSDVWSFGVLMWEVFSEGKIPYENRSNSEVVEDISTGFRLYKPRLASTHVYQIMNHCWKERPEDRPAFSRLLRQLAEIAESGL
Experimental: as §1, §2
(§3) The compound 4e was spiked into HL60 cell lysate at different concentrations (0.001, 0.01, 0.1, 1, 10 and 50 μM). In addition, DMSO was also spiked in HL60 lysate at low concentration (2% v/v) as control. Samples were profiled on PamGene’s Tyrosine Kinase (PTK) arrays in technical replicates, covering a total of 196 phosphorylation sites. Frozen HL60 cultured cell pellet was sent to PamGene. At PamGene, cells were lysed using a lysis buffer and proteases inhibitors cocktail. Protein concentration was measured using standard Bradford assay as per PamGene SOPs. These lysates were further used for generating the PTK activity profiles. For spiking, 4e was received as powder form and dissolved in DMSO at PamGene facility followed by storing at -20°C in small aliquots. PamGene used its in-house bioinformatics toolbox in combination with other methods to generate hypotheses of signaling pathways.

[4] = test system: Tyk2; experiment: PamChip tyrosine kinase microarray, Tyk2; assay type: biochemical, human; details: 4e 0.1 µM, HL60 lysate
Experimental: as §1, §2, §3

For O=C(Cc1ccc(NC(=O)c2cccc(Cl)c2)cc1)NCc1ccccc1 [Compound 4e, N-(4-(2-(benzylamino)-2-oxoethyl)phenyl)-3-chlorobenzamide], the “increased phosphorylation of Akt1/2/3 at Thr308 and Ser473 compared to control” value ([1]; HL60, versus no treatment) was > 117 fold, the “phosphokinase signal after 4e exposure, AKT 1/2/3” value ([1]; HL60 cell lysate, treated) was 22.29 and the “% Change, AKT 1/2/3” value ([1]; treated vs untreated HL60) was 11783.08%. The “Change in Signal, AKT 1/2/3” value ([1]; treated vs untreated HL60) was 22.10, the “Mean Final Score” value [2] was 1.2290 and the “Mean Kinase Statistic” value [2] was -0.5054. For the same compound, the “Mean Significance Score” value [2] was 0.8208, the “Mean Specificity Score” value [2] was 0.4082 and the “Mean Final Score” value [3] was 1.9173. For the same compound, the “Mean Kinase Statistic” value [3] was -0.5666, the “Mean Significance Score” value [3] was 1.0723 and the “Mean Specificity Score” value [3] was 0.8451. The “Mean Final Score” value [4] was 1.7035, the “Mean Kinase Statistic” value [4] was -0.6710 and the “Mean Significance Score” value [4] was 1.1411. For the same compound, the “Mean Specificity Score” value [4] was 0.5624.
